Experimental data reported in ChEMBL document CHEMBL1201862, “PubChem BioAssay data set” (2004).
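Interpolation was linear, between the two tested concentrations surrounding the appropriate level; five concentrations were tested over 48 hours in 96-well plates. GI50 is the concentration that inhibits growth by half.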 The source made the active and inactive calls. No stated cut-off is given here; in the data, active = GI50 up to about 1.1 µM and inactive = higher.

How the values were obtained:
Experiment in all cases: DTP human tumour cell line panel, 48 h
[1] = tested on: NCI-H23
[2] = tested on: OVCAR-8
[3] = tested on: UACC-257
[4] = tested on: MOLT-4
[5] = tested on: BT-549
[6] = tested on: RXF 393
[7] = tested on: MDA-N
[8] = tested on: SNB-19
[9] = tested on: MCF7
[10] = tested on: SF-295
[11] = tested on: MDA-MB-231
[12] = tested on: LOX IMVI
[13] = tested on: OVCAR-5
[14] = tested on: NCI-H522
[15] = tested on: K562
[16] = tested on: COLO 205
[17] = tested on: SF-539
[18] = tested on: PC-3
[19] = tested on: TK-10
[20] = tested on: MDA-MB-435
[21] = tested on: SN12C
[22] = tested on: HCC 2998
[23] = tested on: SK-OV-3
[24] = tested on: SK-MEL-28
[25] = tested on: CAKI-1
[26] = tested on: M14
[27] = tested on: SR
[28] = tested on: SW-620
[29] = tested on: IGROV-1
[30] = tested on: UACC-62
[31] = tested on: OVCAR-4
[32] = tested on: HL-60
[33] = tested on: Malme-3M
[34] = tested on: HOP-62
[35] = tested on: U-251
[36] = tested on: A549
[37] = tested on: HCT-116
[38] = tested on: HT-29
[39] = tested on: EKVX
[40] = tested on: ACHN
[41] = tested on: KM12
[42] = tested on: NCI/ADR-RES
[43] = tested on: Hs-578T
[44] = tested on: SNB-75
[45] = tested on: RPMI-8226
[46] = tested on: NCI-H460
[47] = tested on: SK-MEL-5
[48] = tested on: HCT-15
[49] = tested on: UO-31
[50] = tested on: HOP-92
[51] = tested on: SF-268
[52] = tested on: 786-0
[53] = tested on: NCI-H226
[54] = tested on: SK-MEL-2
[55] = tested on: T47D
[56] = tested on: DU-145
[57] = tested on: OVCAR-3
[58] = tested on: A498
[59] = tested on: CCRF-CEM

Measured: GI50

CCN(CC)c1nc(N(C)C)c2ccccc2n1
33.3 µM: [48]
inactive: [1] 23.2 µM | [2] 31 µM | [3] 26.7 µM | [4] 7.66 µM | [5] 48.1 µM | [6] 24 µM | [7] 16.5 µM | [8] 39.9 µM | [9] 29.2 µM | [10] 33.1 µM | [11] 72.4 µM | [12] 30.1 µM | [13] 25.5 µM | [14] 18.5 µM | [15] 10.6 µM | [16] 19.4 µM | [17] 24.3 µM | [18] 26.4 µM | [19] 44.7 µM | [20] 28.9 µM | [21] 20.9 µM | [22] 15.3 µM | [23] 38.8 µM | [24] 31.8 µM | [25] 58.9 µM | [26] 15.6 µM | [27] 7.78 µM | [28] 32.1 µM | [29] 37 µM | [30] 14.9 µM | [31] 54.1 µM | [32] 41.1 µM | [33] 41.1 µM | [34] 49.3 µM | [35] 28.4 µM | [36] 25.8 µM | [37] 10.8 µM | [38] 11.6 µM | [39] 10.3 µM | [40] 27.9 µM | [41] 31.3 µM | [42] 22.5 µM | [43] 53.3 µM | [44] 34.8 µM | [45] 13.2 µM | [46] 25.4 µM | [47] 15.1 µM | [49] 19.3 µM | [50] 43.3 µM | [51] 52.2 µM | [52] 27.9 µM | [53] 15.9 µM | [54] 30.1 µM | [55] 22.9 µM

O=C1OCC2OC(=O)c3cc(O)c(O)c(O)c3-c3c(O)c(O)c(O)c4c3C(=O)OC(C2OC(=O)c2cc(O)c(O)c(O)c2-c2c1cc(O)c(O)c2O)C1OC(=O)C2C4=C(O)C(=O)C23Oc2cc(O)c4c(c2[C@H]13)O[C@H](c1ccc(O)c(O)c1)[C@@H](O)C4 (some centres not stated)
18.4 µM: [48]
inactive: [1] 19.8 µM | [2] 22.2 µM | [3] 29 µM | [4] 22.6 µM | [56] 30.9 µM | [5] 19.3 µM | [6] 16.8 µM | [8] 41.4 µM | [9] 23.1 µM | [10] 19.8 µM | [11] 18.9 µM | [12] 14.8 µM | [13] 14.6 µM | [14] 17.4 µM | [15] 26 µM | [16] 19.2 µM | [57] 30.1 µM | [18] 38.5 µM | [20] 18.5 µM | [21] 18 µM | [22] 25.2 µM | [23] 44.1 µM | [24] 66.7 µM | [25] 16.2 µM | [26] 12.6 µM | [27] 27.5 µM | [28] 20.6 µM | [29] 26.4 µM | [30] 20.4 µM | [31] 15.7 µM | [32] 18.5 µM | [33] 23.1 µM | [34] 41.7 µM | [35] 16.6 µM | [58] > 100 µM | [36] 19.1 µM | [37] 17.3 µM | [38] 16.2 µM | [39] 12.7 µM | [40] 23 µM | [41] 24.8 µM | [42] 23.3 µM | [43] 28.1 µM | [44] 28.4 µM | [45] 24.5 µM | [46] 20.5 µM | [47] 16 µM | [49] 17.8 µM | [50] 25.9 µM | [51] 19 µM | [52] 21.4 µM | [53] 14.2 µM | [59] 19.4 µM | [54] 20.2 µM | [55] 20.7 µM

O/N=N\c1nc(-c2cccnc2)nc2ccccc12
96.8 µM: [48]
inactive: [1] > 100 µM | [2] > 100 µM | [3] > 100 µM | [4] > 100 µM | [56] > 100 µM | [5] > 100 µM | [7] > 100 µM | [8] > 100 µM | [9] > 100 µM | [10] > 100 µM | [11] > 100 µM | [13] > 100 µM | [14] > 100 µM | [15] > 100 µM | [16] 75.5 µM | [17] > 100 µM | [57] > 100 µM | [18] > 100 µM | [19] > 100 µM | [21] > 100 µM | [22] 87.9 µM | [23] > 100 µM | [24] > 100 µM | [25] > 100 µM | [26] > 100 µM | [28] > 100 µM | [29] > 100 µM | [30] > 100 µM | [31] > 100 µM | [32] > 100 µM | [34] > 100 µM | [35] > 100 µM | [58] > 100 µM | [36] > 100 µM | [37] > 100 µM | [38] 47.8 µM | [39] > 100 µM | [40] > 100 µM | [41] > 100 µM | [42] > 100 µM | [43] > 100 µM | [44] 33.3 µM | [46] > 100 µM | [47] > 100 µM | [49] 17.5 µM | [51] > 100 µM | [52] > 100 µM | [53] > 100 µM | [59] > 100 µM | [55] > 100 µM
